Assay results: patent US10280165B2, “Pyridopyrimidinones and methods of use thereof” (Genentech, Inc., priority 2015, dated 2019)

Molecular target: HEK cells stably transfected with tetracycline inducible hNR1 and hNR2A (Homo sapiens (Human), UniProt Q05586+Q12879)
Test: Assay 1: Cell-Based Assay (cytosolic calcium, positive allosteric modulation)
Conditions: for Emax: HEK293, scaled relative to 100 μM L-glutamate maximal response (100%) and 0 μM L-glutamate (0%), with 30 μM glycine and 300 nM L-glutamate, read-out: Max %; for EC50: with 30 μM glycine and 300 nM L-glutamate (EC30), given for compounds reaching maximal response plateaus
Method: Assay 1: Cell-Based Assay
HEK cells stably transfected with tetracycline inducible hNR1 and hNR2A were seeded into clear bottom 384 well poly-D-lysine coated plates (2.5×10^4 cells per well) in Minimum Essential Media (MEM; without L-) including 7.5 μg mL doxycycline and 500 μM (+)-ketamine. The cells were incubated at 37° C. in 5% CO2 for 24 h. For measurement of changes in cytosolic calcium, the seeding media was removed and the cells incubated at 37° C. for 60 min with 1× Becton Dickinson Calcium Assay Kit reagent in Hanks Balanced Salt Solution (HBSS; w/o magnesium, including 1.8 mM calcium, 0.65 mg ml^−1 probenecid and 10 μM (+)-ketamine, pH 7.15) then allowed to equilibrate to rt for 30 min. Concentration-effect curves to Positive Allosteric Modulators (PAMs) were constructed by adding different concentrations (with 30 μM glycine and 300 nM L-glutamate (EC30)) to different wells in HBSS. Compounds were added after a 10 second baseline read and maximum level of relative fluorescence units (RFU) was measured over a 5 min period. Responses were scaled relative to 100 μM L-glutamate maximal response (100%) and 0 μM L-glutamate (0%). EC50 values are provided for compounds reaching maximal response plateaus, and the max % (EC50 (--)) only if no plateau was reached.
A four-parameter Hill equation was fitted to individual concentration-effect curves:
[formula] in which Y, S0, Sinf, AC50, n and c were effect, lower-asymptote, upper-asymptote, mid-point location, slope parameter, and concentration respectively.

HEK cells stably transfected with tetracycline inducible hNR1 and hNR2A, sequence (Q12879 23-1464, other chains not shown): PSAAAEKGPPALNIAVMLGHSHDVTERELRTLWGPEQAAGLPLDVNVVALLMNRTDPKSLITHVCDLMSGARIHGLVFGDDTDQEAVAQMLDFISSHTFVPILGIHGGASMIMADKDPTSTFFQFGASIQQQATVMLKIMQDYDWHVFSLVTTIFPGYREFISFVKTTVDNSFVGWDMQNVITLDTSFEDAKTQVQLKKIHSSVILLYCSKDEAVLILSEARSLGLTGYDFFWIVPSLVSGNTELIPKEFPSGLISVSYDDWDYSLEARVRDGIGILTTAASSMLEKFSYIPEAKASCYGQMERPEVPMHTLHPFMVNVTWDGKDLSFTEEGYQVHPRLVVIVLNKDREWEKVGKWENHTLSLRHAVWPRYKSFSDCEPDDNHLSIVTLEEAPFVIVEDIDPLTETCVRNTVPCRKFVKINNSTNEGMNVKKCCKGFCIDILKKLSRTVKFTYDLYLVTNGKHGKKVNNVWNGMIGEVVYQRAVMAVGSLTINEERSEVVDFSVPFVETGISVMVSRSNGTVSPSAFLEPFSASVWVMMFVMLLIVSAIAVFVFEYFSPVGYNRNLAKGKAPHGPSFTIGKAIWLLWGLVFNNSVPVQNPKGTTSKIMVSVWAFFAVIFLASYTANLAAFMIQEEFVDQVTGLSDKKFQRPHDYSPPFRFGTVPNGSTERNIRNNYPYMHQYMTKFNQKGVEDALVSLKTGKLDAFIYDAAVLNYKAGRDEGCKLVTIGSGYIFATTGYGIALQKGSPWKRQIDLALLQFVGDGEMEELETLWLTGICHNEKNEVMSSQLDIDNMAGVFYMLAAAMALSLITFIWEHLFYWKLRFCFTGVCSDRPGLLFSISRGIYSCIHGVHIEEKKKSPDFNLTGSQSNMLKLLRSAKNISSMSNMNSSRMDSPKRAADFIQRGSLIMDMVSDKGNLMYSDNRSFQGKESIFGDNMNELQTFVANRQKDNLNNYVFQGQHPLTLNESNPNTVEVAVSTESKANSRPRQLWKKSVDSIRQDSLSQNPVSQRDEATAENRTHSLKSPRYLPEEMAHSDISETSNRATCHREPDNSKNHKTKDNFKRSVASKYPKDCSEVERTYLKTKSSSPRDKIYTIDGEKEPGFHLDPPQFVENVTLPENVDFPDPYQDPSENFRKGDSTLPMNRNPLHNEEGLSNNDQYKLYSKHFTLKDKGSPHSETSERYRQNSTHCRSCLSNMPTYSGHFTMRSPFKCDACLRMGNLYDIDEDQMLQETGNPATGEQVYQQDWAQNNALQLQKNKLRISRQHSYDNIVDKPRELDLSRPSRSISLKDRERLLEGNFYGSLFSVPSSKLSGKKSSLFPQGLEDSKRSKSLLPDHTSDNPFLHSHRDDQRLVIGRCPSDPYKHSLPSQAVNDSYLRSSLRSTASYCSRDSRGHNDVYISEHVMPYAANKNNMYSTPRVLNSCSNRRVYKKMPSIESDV

| SMILES | Emax [%] | EC50 [nM] |
| --- | --- | --- |
| Cc1ccc2nc(Cn3nc(C(F)(F)F)cc3Cl)cc(=O)n2c1[C@@H]1C[C@H]1CO [Compound 36, 2-[[5-chloro-3-(trifluoromethyl)pyrazol-1-yl]methyl]-6-[(1R,2R)-2-(hydroxymethyl)cyclopropyl]-7-methyl-pyrido[1,2-a]pyrimidin-4-one] | 135 | 126 |
| Cc1ccc2nc(Cn3nc(C(F)(F)F)cc3Cl)cc(=O)n2c1[C@H]1C[C@@H]1CO [Compound 37, 2-[[5-chloro-3-(trifluoromethyl)pyrazol-1-yl]methyl]-6-[(1S,2S)-2-(hydroxymethyl)cyclopropyl]-7-methyl-pyrido[1,2-a]pyrimidin-4-one] | 127 | – |
| Cc1cc([C@@H]2C[C@H]2C#N)n2c(=O)cc(Cn3nc(C(F)(F)F)cc3Cl)nc2c1 [Compound 38, (1R,2R)-2-(2-[[5-chloro-3-(trifluoromethyl)pyrazol-1-yl]methyl]-8-methyl-4-oxo-pyrido[1,2-a]pyrimidin-6-yl]cyclopropanecarbonitrile] | 144 | 39 |
| Cc1cc([C@H]2C[C@@H]2C#N)n2c(=O)cc(Cn3nc(C(F)(F)F)cc3Cl)nc2c1 [Compound 39, (1S,2S)-2-[2-[[5-chloro-3-(trifluoromethyl)pyrazol-1-yl]methyl]-8-methyl-4-oxo-pyrido[1,2-a]pyrimidin-6-yl]cyclopropanecarbonitrile] | 120 | 951 |
| N#C[C@@H]1C[C@H]1c1cccc2nc(Cn3nc(C(F)(F)F)cc3Cl)cc(=O)n12 [Compound 40, (1R,2R)-2-[2-[[5-chloro-3-(trifluoromethyl)pyrazol-1-yl]methyl]-4-oxo-pyrido[1,2-a]pyrimidin-6-yl]cyclopropanecarbonitrile] | 148 | – |
| N#C[C@H]1C[C@@H]1c1cccc2nc(Cn3nc(C(F)(F)F)cc3Cl)cc(=O)n12 [Compound 41, (1S,2S)-2-[2-[[5-chloro-3-(trifluoromethyl)pyrazol-1-yl]methyl]-4-oxo-pyrido[1,2-a]pyrimidin-6-yl]cyclopropanecarbonitrile] | 111 | 2900 |
| N#C[C@H]1C[C@@H]1c1c(Cl)ccc2nc(Cn3nc(C(F)(F)F)cc3Cl)cc(=O)n12 [Compound 42, (1S,2S)-2-[7-chloro-2-[[5-chloro-3-(trifluoromethyl)pyrazol-1-yl]methyl]-4-oxo-pyrido[1,2-a]pyrimidin-6-yl]cyclopropanecarbonitrile] | 110 | 10600 |
| Cc1cc(C2CC2C#N)n2c(=O)cc(Cn3nc(Cl)cc3C(F)(F)F)nc2c1 (stereo not shown) [Compound 43, 2-[2-[[3-chloro-5-(trifluoromethyl)pyrazol-1-yl]methyl]-8-methyl-4-oxo-pyrido[1,2-a]pyrimidin-6-yl]cyclopropanecarbonitrile] | 145 | 269 |
| Cc1ccc2nc(Cn3nc(Cl)cc3C(F)(F)F)cc(=O)n2c1C1CC1C#N (stereo not shown) [Compound 44, 2-[2-[[3-chloro-5-(trifluoromethyl)pyrazol-1-yl]methyl]-7-methyl-4-oxo-pyrido[1,2-a]pyrimidin-6-yl]cyclopropanecarbonitrile] | 158 | 227 |

Now from value to compound:

| Emax [%] | EC50 [nM] | SMILES |
| --- | --- | --- |
| 151 | – | N#C[C@@H]1C[C@H]1c1c(F)ccc2nc(Cn3nc(C(F)(F)F)cc3Cl)cc(=O)n12 [Compound 45, (1R,2R)-2-[2-[[5-chloro-3-(trifluoromethyl)pyrazol-1-yl]methyl]-7-fluoro-4-oxo-pyrido[1,2-a]pyrimidin-6-yl]cyclopropanecarbonitrile] |
| 107 | 3220 | N#C[C@H]1C[C@@H]1c1c(F)ccc2nc(Cn3nc(C(F)(F)F)cc3Cl)cc(=O)n12 [Compound 46, (1S,2S)-2-[2-[[5-chloro-3-(trifluoromethyl)pyrazol-1-yl]methyl]-7-fluoro-4-oxo-pyrido[1,2-a]pyrimidin-6-yl]cyclopropanecarbonitrile] |
| 200 | 178 | N#CC1CC1c1c(F)ccc2nc(Cn3nc(Cl)cc3C(F)(F)F)cc(=O)n12 (stereo not shown) [Compound 47, 2-[2-[[3-chloro-5-(trifluoromethyl)pyrazol-1-yl]methyl]-7-fluoro-4-oxo-pyrido[1,2-a]pyrimidin-6-yl]cyclopropanecarbonitrile] |
| 73 | 32400 | O=c1cc(Cn2nc(C(F)(F)F)cc2Cl)nc2ccccn12 [Compound 48, 2-[[5-chloro-3-(trifluoromethyl)pyrazol-1-yl]methyl]pyrido[1,2-a]pyrimidin-4-one] |
| 126 | 12300 | CC(=O)c1cccc2nc(Cn3nc(C(F)(F)F)cc3Cl)cc(=O)n12 [Compound 49, 6-acetyl-2-[[5-chloro-3-(trifluoromethyl)pyrazol-1-yl]methyl]pyrido[1,2-a]pyrimidin-4-one] |
| 124 | 7700 | CC(=O)c1c(C)ccc2nc(Cn3nc(C(F)(F)F)cc3Cl)cc(=O)n12 [Compound 50, 6-acetyl-2-[[5-chloro-3-(trifluoromethyl)pyrazol-1-yl]methyl]-7-methyl-pyrido[1,2-a]pyrimidin-4-one] |
| 114 | 9100 | CC(=O)c1c(C)ccc2nc(Cn3nc(Cl)cc3C(F)(F)F)cc(=O)n12 [Compound 51, 6-acetyl-2-[[3-chloro-5-(trifluoromethyl)pyrazol-1-yl]methyl]-7-methyl-pyrido[1,2-a]pyrimidin-4-one] |
| 120 | 79 | COc1ccc2nc(Cn3nc(C(F)(F)F)cc3Cl)cc(=O)n2c1[C@@H]1C[C@H]1C#N [Compound 52, (1R,2R)-2-[2-[[5-chloro-3-(trifluoromethyl)pyrazol-1-yl]methyl]-7-methoxy-4-oxo-pyrido[1,2-a]pyrimidin-6-yl]cyclopropanecarbonitrile] |
| 100 | – | COc1ccc2nc(Cn3nc(C(F)(F)F)cc3Cl)cc(=O)n2c1[C@H]1C[C@@H]1C#N [Compound 53, (1S,2S)-2-[2-[[5-chloro-3-(trifluoromethyl)pyrazol-1-yl]methyl]-7-methoxy-4-oxo-pyrido[1,2-a]pyrimidin-6-yl]cyclopropanecarbonitrile] |
| 150 | 24700 | O=c1cc(Cn2nc(C(F)(F)F)cc2Cl)nc2cc(C(F)(F)F)cc(Cl)n12 [Compound 54, 6-chloro-2-[[5-chloro-3-(trifluoromethyl)pyrazol-1-yl]methyl]-8-(trifluoromethyl)pyrido[1,2-a]pyrimidin-4-one] |
| 116 | 102 | COc1ccc2nc(Cn3nc(Cl)cc3Cl)cc(=O)n2c1C1CC1C (stereo not shown) [Compound 55, 2-((3,5-dichloro-1H-pyrazol-1-yl)methyl)-7-methoxy-6-(2-methylcyclopropyl)-4H-pyrido[1,2-a]pyrimidin-4-one] |
| 142 | 123 | N#C[C@@H]1C[C@H]1c1cc(C(F)(F)F)cc2nc(Cn3nc(C(F)(F)F)cc3Cl)cc(=O)n12 [Compound 56, (1R,2R)-2-(2-((5-chloro-3-(trifluoromethyl)-1H-pyrazol-1-yl)methyl)-4-oxo-8-(trifluoromethyl)-4H-pyrido[1,2-a]pyrimidin-6-yl)cyclopropanecarbonitrile] |
| 154 | 222 | Cc1cc([C@@H]2C[C@H]2C#N)n2c(=O)cc(Cn3nc(Cl)cc3Cl)nc2c1 [Compound 57, (1R,2R)-2-(2-((3,5-dichloro-1H-pyrazol-1-yl)methyl)-8-methyl-4-oxo-4H-pyrido[1,2-a]pyrimidin-6-yl)cyclopropanecarbonitrile] |
